Experimental data taken from patent US9988462B2, “Material and methods for treating or preventing HER-3 associated diseases” (Daiichi Sankyo Europe GmbH, priority 2005, dated 2018).

Experiments:
[1] = test system: HER3 phosphorylation in A549 cells; test: Reactivation study: pHER3 ELISA in A549 cells; type: cell-based, human
Protocol: Experiments were performed in triplicate wells and repeated at least 2 times. Results are expressed as mean±SD.
A549 cells were plated in Ham's F-12 medium (Gibco), all media supplemented with 10% FBS (Hyclone, Logan, Utah) and 1× L-glutamine (Gibco). Cells were serum-starved overnight. […] Cells were washed with cold PBS after their respective treatment time points and lysed using RIPA buffer (20 mM Tris-HCl pH 7.5, 1% Igepal, 1% sodium deoxycholate, 150 mM NaCl, 0.1% SDS, 1% Triton X-100) containing 200 μM phenylmethanesulfonylfluoride (PMSF) (Fluka Biochemica), 200 μM Halt protease inhibitor cocktail kit (Pierce Biotechnology), and 200 μM sodium orthovanadate (Sigma-Aldrich, St. Louis, Mo.). The lysates were passed through QIA shredder columns (Qiagen) and the flow-through quantitated using a spectrophotometer (Beckman Coulter, Fullerton, Calif.). Proteins, 50 μg per well, were analyzed in duplicate for pHER3 using ELISA Duoset (R&D systems) according to manufacturer's protocol.

HCC-1569 = HCC-1569 breast cancer xenograft, U1-59 and lapatinib; type: in vivo, mouse; details: HCC-1569 xenograft
rat HER-3 = molecular target: T1, rat HER-3 (Rattus norvegicus, UniProt Q62799); test: ELISA cross-reactivity with rat HER-3; type: binding
T1 construct: The cDNAs expressing the ECD of human and rat HER-3 were cloned into mammalian expression vectors as V5-His fusion proteins; V5-His; made in house; host or cells: mammalian expression vector; HEK 293T is named only for the chimeras
T1 sequence (Q62799 20-643 limits assumed): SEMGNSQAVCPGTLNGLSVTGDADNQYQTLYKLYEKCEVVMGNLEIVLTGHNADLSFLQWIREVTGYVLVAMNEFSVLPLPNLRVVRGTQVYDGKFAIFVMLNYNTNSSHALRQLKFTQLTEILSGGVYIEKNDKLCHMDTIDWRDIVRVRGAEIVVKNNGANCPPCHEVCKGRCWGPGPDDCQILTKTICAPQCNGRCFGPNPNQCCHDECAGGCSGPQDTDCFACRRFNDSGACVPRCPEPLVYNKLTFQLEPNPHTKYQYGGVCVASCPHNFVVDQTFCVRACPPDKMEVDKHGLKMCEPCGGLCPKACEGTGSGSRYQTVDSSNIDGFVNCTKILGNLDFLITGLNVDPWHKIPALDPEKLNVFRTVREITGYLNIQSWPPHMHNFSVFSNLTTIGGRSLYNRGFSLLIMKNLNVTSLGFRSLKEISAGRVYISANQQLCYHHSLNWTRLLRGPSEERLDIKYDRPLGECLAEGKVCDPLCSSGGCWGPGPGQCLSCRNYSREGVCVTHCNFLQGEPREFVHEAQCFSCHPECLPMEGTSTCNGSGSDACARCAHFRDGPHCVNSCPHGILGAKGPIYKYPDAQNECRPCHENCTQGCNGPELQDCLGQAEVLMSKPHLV
Text: The extra-cellular domain (ECD) of Human HER-3 cDNA was amplified from RAT1-HER-3 cells. The rat HER-3 cDNAs was amplified by RT-PCR from rat liver RNA and confirmed by sequencing. The cDNAs expressing the ECD of human and rat HER-3 were cloned into mammalian expression vectors as V5-His fusion proteins. Domains from the human HER-3 ECD were swapped into the scaffold provided by the rat HER-3 ECD by using the Mfe1, BstX1 and DraIII internal restriction sites. By this means, various chimeric rat/human HER-3 ECD HIS fusion proteins (amino acids 1-160, 161-358, 359-575, 1-358, 359-604) were constructed and expressed via transient transfection of HEK 293T cells. Expression of the constructs was confirmed using a rat polyclonal antibody against human HER-3. The human monoclonal antibodies were tested in ELISA for binding to the secreted chimeric ECDs.

[2] = molecular target: T2, reduced, denatured HER-3-His tagged purified ECD protein (Homo sapiens, UniProt P21860); test: Dot blot analysis of reduced, denatured HER-3 ECD; type: binding
T2 construct: The extracellular domain of HER-3 (ECD) cDNA was cloned by polymerase chain reaction (PCR); His (C); made in house; host or cells: HEK293

[3] = molecular target: T3, L1-S1 extra-cellular domains of HER-3 (Homo sapiens, UniProt P21860); test: ELISA binding to truncated L1-S1 HER-3 protein
T3 construct: L1 domain (aa 19-184), in the S1 (aa 185-327); V5-His (C); made in house; host or cells: HEK 293T (supernatant)

BxPC3 [4] = test: BxPC3 pancreatic tumor xenograft in SCID mice (established tumors); type: in vivo, mouse; details: BxPC3, CB17 SCID mice; for tumor growth: 50 mg/kg then 25 mg/kg once weekly i.p.
Protocol: As controls sets of mice treated with either the vehicle control, PBS, or the established therapeutic antibody, Erbitux, were included. 5×10^6 BxPC3 cells were inoculated subcutaneously without Matrigel into CB17 SCiD mice. […] Thereafter the mice received once weekly 25 mg/kg injections for the duration of the study.

BxPC3 [5] = test: BxPC3 xenograft in SCID mice, combination with Erbitux; type: in vivo, mouse; details: BxPC3 with Matrigel, CB17 SCID mice, weekly i.p. for six weeks
Protocol: 5×10^6 BxPC3 cells were inoculated subcutaneously with Matrigel into CB17 SCID mice. After tumor volumes had reached 200 mm^3, mice were randomized into individual treatment groups. […] All antibodies were dosed at a single loading dose of 50 mg/kg/week, followed by weekly injections of 25 mg/kg for six weeks. Control arms received bi-weekly administrations of Gemcitabine (120 mg/kg), weekly pooled human IgG or weekly vehicle (PBS) injections. The regimens are detailed in TABLE 9 below.

[6] = test system: HER-3 phosphorylation (pHER-3); test: Pharmacodynamic pHER-3 immunoblot of BxPC3 tumor xenografts; type: in vivo, mouse; details: 500 μg on day 1 and day 4, sacrificed day 5
Protocol: The inhibition of HER-3 in the human pancreatic tumors could also be shown in a pharmacodynamic experiment. The BxPC3 tumor xenografts were grown as described above. […] The mice were treated on day 1 and day 4 and then sacrificed on day 5 to measure the antibody-dependent inhibition of HER-3 phosphorylation (pHER-3).
The tumors were homogenized in a standard RIPA buffer with protease inhibitors. 50 μg clear lysate was separated on a 4-20% Tris-glycine gel, transferred onto a nitrocellulose membrane and blocked in 3% bovine serum albumin (BSA). Immunoblotting was performed using an anti-pHER-3 antibody (antibody 21D3, Cell Signaling technology). An anti-actin antibody (AB a-2066, Sigma) was used as a control.
Expression was detected by enhanced chemiluminescence (Amersham Biosciences, Piscataway, N.J.). The images were captured with the Versadoc 5000 Imaging System (BioRad, Hercules, Calif.). […] See, FIG. 20 of US Publication No. 20080124345.

Calu-3 NSCLC xenografts = test: Calu-3 NSCLC xenograft, U1-59 with panitumumab or erlotinib; type: in vivo, mouse; details: Calu-3, twice a week; 100 μg U1-59, 100 μg panitumumab, 25 μg erlotinib
Protocol: (§1) To determine in vivo efficacy, mice bearing ˜200 mm^3 Calu-3 NSCLC xenografts were treated twice a week with anti-HER family inhibitors or control. Other experiments were done with A549 cells.

[7] = test system: SkBr-3 breast cancer cells; test: Anchorage-independent growth of SkBr-3 cells; type: cell-based, human
Protocol: (§2) IgG was used as a negative control for all studies. Tumor cell colonies formed in the absence or presence of HRG for 6 to 10 days and were stained with MTT for 4 to 6 hours and quantified.

MDA-MB-435 cells = test: Anchorage-independent growth of MDA-MB-435 cells; type: cell-based, human; details: basal MDA-MB-435
Protocol: as §2

[8] = test system: MDA-MB-175VII breast cancer cells; test: Proliferation of MDA-MB-175VII cells (ALOMAR BLUE); type: cell-based, human; details: four days
Protocol: After four days, the growth of treated cells was measured with ALOMAR BLUE™.

A549 cells = test: Anchorage-independent growth of A549 cells; type: cell-based, human; details: A549, 10 μg/mL, 10 days
Text: (§3) Tumor cell colonies formed in the absence of exogenous ligand for 10 days and were stained with MTT and quantified using a Scanalyzer HTS camera imaging system.

A549 NSCLC xenograft = A549 NSCLC xenograft model; type: in vivo, mouse; details: vs IgG control or other HER mAbs
Protocol: as §1, §3

[9] = test system: BxPC3 pancreatic xenografts; test: BxPC3 xenograft dose/schedule efficacy (PK/PD/Efficacy model); type: in vivo, mouse; details: vs IgG control
Protocol: (§4) Inhibition of pHER in the BxPC3 xenograft tumors was analyzed by western blotting. A PK/PD/Efficacy model (based on Simeoni et al. (2004) Cancer Res. 64:1094-1101) was used to prospectively select dose and schedule for further testing. To confirm the PK/PD/Efficacy model, BxPC3 pancreatic tumor-bearing mice were treated with 400 μg/mouse biweekly and 200 μg/mouse biweekly, weekly and twice a week. […] The relationship between drug concentration, inhibition of pHER-3 in animals, and interspecies PK scaling was used to select the minimally effective dose for the first in human study.

pHER-3 = pHER-3 in BxPC3 xenograft tumors (quantitative Western blot); type: in vivo, mouse; details: for inhibition of pHER-3: quantitative Western blot
Protocol: as §4

[10] = Serum concentration of U1-59 at necropsy; type: in vivo, mouse
Protocol: as §4

[11] = Interspecies scaling of U1-59 PK to human; details: estimated by interspecies scaling (mice, rat, monkeys)
Protocol: as §4

[12] = test system: HER-3 phosphorylation in MCF-7 cells; test: HRG-β induced HER-3 phosphorylation in MCF-7 cells (ELISA); type: cell-based, human; details: 10 nM HRG-β for 10 min, read-out: IC50, inhibition of phosphorylation of HER-3
Protocol: Lysates were transferred to 1B4 (mouse anti-HER-3 mAb) ELISA plates and phosphorylation of HER-3 was analyzed with antibody 4G10. […] See, FIG. 7b of US Publication No. 20080124345.

[13] = A549, 24 hours, 50 μg/ml U1-59, 5 μM gefitinib

## COc1cc2ncnc(Nc3ccc(F)c(Cl)c3)c2cc1OCCCN1CCOCC1 [gefitinib, 4-(3-chloro-4-fluorophenylamino)-7-methoxy-6-[3-(4-morpholinyl)propoxy]quinazoline]
[1]; A549, 1 hour, 5 μM gefitinib
  HER3 phosphorylation: partial inhibition of HER phosphorylation
[1]; [13]
  HER3 phosphorylation: reversed to control levels after 24 hours

## CS(=O)(=O)CCNCc1ccc(-c2ccc3ncnc(Nc4ccc(OCc5cccc(F)c5)c(Cl)c4)c3c2)o1 [lapatinib, N-[3-chloro-4-[(3-fluorobenzyl)oxy]phenyl]-6-[5-[[[2-(methylsulfonyl)ethyl]amino]methyl]furan-2-yl]quinazolin-4-amine bis(4-methylbenzene-sulfonate)monohydrate, reference compound]
HCC-1569
  tumor growth: some, but not significant tumor growth inhibition

## U1-59: human anti-HER-3 antibody, SEQ ID NO: 70/72
Rat HER-3
  Rat XR (cross-reactive): cross-reacted with rat HER-3 and Yes
[2]
  binding in dot blot analysis: absence of binding
[3]
  binding to the L1-S1 protein: bound to the L1-S1 protein
BxPC3 [4]
  delay of tumor growth compared with Erbitux: more effective than the EGF-R-targeting antibody Erbitux at delaying tumor growth
  tumor growth: reduced the growth of the human pancreatic tumors in a cytostatic fashion
BxPC3 [5]
  tumor growth: delayed the growth of the human pancreatic tumors to the same degree as Gemcitabine
[6]
  phosphorylation of HER-3 in tumors: no longer detectable
Calu-3 NSCLC xenografts
  tumor growth: greatly reduced tumor growth as compared to control
[7]
  inhibition of colony growth: 50%
MDA-MB-435 cells
  colony growth / colony formation: did not inhibit colony growth
[8]
  reduction of HRG-stimulated proliferation: up to 40%
A549 cells
  inhibition of colony growth: 50%
A549 NSCLC xenograft
  tumor growth: tumor stasis
HCC-1569
  tumor growth: did not inhibit HCC-1569 tumor growth
[9]; 200 μg/mouse biweekly
  inhibition of tumor growth: 33%
[9]; 200 μg/mouse twice a week
  inhibition of tumor growth: 70%
[9]; 200 μg/mouse weekly
  inhibition of tumor growth: 74%
[9]; 400 μg/mouse biweekly
  inhibition of tumor growth: 50%
pHER-3; 200 μg/mouse biweekly
  inhibition of pHER-3: 58%
pHER-3; 200 μg/mouse twice a week
  inhibition of pHER-3: 20%
pHER-3; 200 μg/mouse weekly
  inhibition of pHER-3: 23%
pHER-3; 400 μg/mouse biweekly
  inhibition of pHER-3: 30%
pHER-3; BxPC3 xenograft mice, estimated
  trough concentration needed to achieve 90% maximal pHER-3 inhibition (IC90): ~3 μg/ml
[10]; 200 μg/mouse biweekly
  Serum concentration at necropsy, mean (SD): 0.45 (0.21) μg/mL
[10]; 200 μg/mouse twice a week
  Serum concentration at necropsy, mean (SD): 34.9 (9.1) μg/mL
[10]; 200 μg/mouse weekly
  Serum concentration at necropsy, mean (SD): 3.08 (0.82) μg/mL
[10]; 400 μg/mouse biweekly
  Serum concentration at necropsy, mean (SD): 2.07 (0.97) μg/mL
[11]
  clearance (CL) in man: 11 mL/day/kg
  initial volume of distribution (Vd) in man: 0.028 L/kg
[1]; [13]
  HER3 phosphorylation: greater inhibition of HER phosphorylation that was sustained after 24 hours

## panitumumab: fully human monoclonal antibody specific to EGF-R [reference compound]
Calu-3 NSCLC xenografts
  tumor growth: greatly reduced tumor growth as compared to control

B1: U1-53: anti-HER-3 antibody, SEQ ID NO: 54/56 (antibody, V domains shown)
VH: EVQLVESGGGLVQPGGSLRLSCAASGFTFSIYSMNWVRQAPGKGLEWVSYISSSSSTIYYADSVKGRFTISRDNAKNSLYLQMNSLRDEDTAVYYCARDRGDFDAFDIWGQGTMVTVSS
VL: DIQMTQSPSSLSASVGDRVTITCQASQDITNYLNWYQQKPGKAPKLLIYDASNLETGVPSRFSGSGSGTDFTFTISSLQPEDIATYNCQQCENFPITFGQGTRLEIK
Rat HER-3
  Rat XR (cross-reactive): No
[2]
  binding in dot blot analysis: absence of binding
[12]
  IC50: 0.14 nM
BxPC3 [4]
  delay of tumor growth compared with Erbitux: more effective than the EGF-R-targeting antibody Erbitux at delaying tumor growth
  tumor growth: reduced the growth of the human pancreatic tumors in a cytostatic fashion
BxPC3 [5]
  tumor growth: delayed the growth of the human pancreatic tumors to the same degree as Gemcitabine
